Results on 14 compounds are retold here after patent publication US8580971B2, “Alkyl-analide producing method” (Bayer CropScience AG, priority 2005, dated 2013).

One data set concerns Leptosphaeria nodorum. Briefly: Leptosphaeria nodorum test (wheat)/protective. The class given is in vivo. As to conditions: protective spray, application rate 1000 ppm, evaluated 10 days after inoculation. On the procedure: Leptosphaeria nodorum Test (Wheat)/Protective To prepare an expedient active compound preparation, 1 part by weight of active compound is mixed with the stated amounts of solvent and emulsifier, and the concentrate is diluted to the desired concentration with water. To test for protective activity, young plants are sprayed with the active compound preparation at the application rate stated. After the spray coating has dried on, the plants are sprayed with a spore suspension of Leptosphaeria nodorum. The plants remain in an incubation cabinet for 48 hours at 20° C. and 100% relative atmospheric humidity. The plants are then placed into a greenhouse at a temperature of approximately 15° C. and a relative atmospheric humidity of approximately 80%. The test is evaluated 10 days after the inoculation. 0% means an efficacy which corresponds to that of the control, while an efficacy of 100% means that no disease is observed.

Data set [1] is described as follows: logP determination by HPLC on reversed-phase column (C18), EEC Directive 79/831 Annex V.A8. The data set is classed as physicochemical. As to conditions: pH 2.3, HPLC reversed-phase C18, 43° C., 0.1% aqueous phosphoric acid/acetonitrile. On the procedure: The logP values stated in the above tables and preparation examples are determined as described in EEC Directive 79/831 Annex V.A8 by means of HPLC (high performance liquid chromatography) on a reversed-phase column (C18). Temperature: 43° C. The determination is effected in the acidic range at pH 2.3 using 0.1% aqueous phosphoric acid and acetonitrile as eluents; linear gradient from 10% acetonitrile to 90% acetonitrile. The calibration is effected with unbranched alkan-2-ones (having 3 to 16 carbon atoms) whose logP values are known (determination of the logP values with reference to the retention times by linear interpolation between two successive alkanones).

For data set [2], the system named is Erysiphe graminis fsp. hordei. Description: Erysiphe test (barley)/protective. The class given is in vivo. As to conditions: protective spray, application rate 1000 ppm, evaluated 7 days after inoculation. On the procedure:
Erysiphe Test (Barley)/Protective To prepare an expedient active compound preparation, 1 part by weight of active compound is mixed with the stated amounts of solvent and emulsifier, and the concentrate is diluted to the desired concentration with water. To test for protective activity, young plants are sprayed with the active compound preparation at the application rate stated. After the spray coating has dried on, the plants are dusted with spores of Erysiphe graminis fsp. hordei. The plants are placed in a greenhouse at a temperature of approximately 20° C. and a relative atmospheric humidity of approximately 80% to favour the development of mildew pustules. The test is evaluated 7 days after the inoculation. 0% means an efficacy which corresponds to that of the control, while an efficacy of 100% means that no disease is observed.

The test system of a further data set is Botrytis cinerea. Description: Botrytis test (bean)/protective. The class given is in vivo. The conditions noted are these: protective spray, application rate 100 ppm, lesion size evaluated 2 days after inoculation. On the procedure:
[table] To prepare an expedient active compound preparation, 1 part by weight of active compound is mixed with the stated amounts of solvent and emulsifier, and the concentrate is diluted to the desired concentration with water. To test for protective activity, young plants are sprayed with the active compound preparation at the application rate stated. After the spray coating has dried on, 2 small agar blocks which sustain the growth of Botrytis cinerea are placed on each leaf. The inoculated plants are placed in a darkened chamber at approximately 20° C. and 100% relative atmospheric humidity. 2 days after the inoculation, the size of the lesions on the leaves is evaluated. 0% means an efficacy which corresponds to that of the control, while an efficacy of 100% means that no disease is observed.

For a further data set, the system named is Pyrenophora teres. Briefly: Pyrenophora teres test (barley)/protective. The class given is in vivo. The conditions noted are these: protective spray, application rate 1000 ppm, evaluated 8 days after inoculation. The protocol: Pyrenophora teres Test (Barley)/Protective To prepare an expedient active compound preparation, 1 part by weight of active compound is mixed with the stated amounts of solvent and emulsifier, and the concentrate is diluted to the desired concentration with water. To test for protective activity, young plants are sprayed with the active compound preparation at the application rate stated. After the spray coating has dried on, the plants are sprayed with a conidial suspension of Pyrenophora teres. The plants remain in an incubation cabinet for 48 hours at 20° C. and 100% relative atmospheric humidity. The plants are then placed into a greenhouse at a temperature of approximately 20° C. and a relative atmospheric humidity of approximately 80%. The test is evaluated 8 days after the inoculation. 0% means an efficacy which corresponds to that of the control, while an efficacy of 100% means that no disease is observed.

The structures appear in SMILES notation.

As to `Cn1cc(C(=O)Nc2ccc(F)cc2-c2ccc(Cl)c(F)c2)c(C(F)F)n1` [drawing 23], the Efficacy in % in the data set on Leptosphaeria nodorum is 84%. The chromatographic logP is lipophilicity estimated from chromatographic retention. In data set [1], `Cn1cc(C(=O)Nc2ccc(F)cc2-c2ccc(Cl)c(F)c2)c(C(F)F)n1` [Example 1, N-(4′-chloro-3′,5-difluorobiphenyl-2-yl)-3-(difluoromethyl)-1-methyl-1H-pyrazole-4-carboxamide] displayed a chromatographic logP of 3.05. For `Cn1cc(C(=O)Nc2cc(F)ccc2-c2ccc(F)c(Cl)c2)c(C(F)F)n1` [drawing 22, reference compound], the Efficacy in % in the data set with Leptosphaeria nodorum worked out at 0%. As to `Cn1cc(C(=O)Nc2ccc(F)cc2-c2ccc(Cl)c(F)c2)c(C(F)F)n1` [drawing 21], in data set [2], the Efficacy in % came out at 78%. Compound `Cn1cc(C(=O)Nc2ccc(F)cc2-c2ccc(Cl)c(F)c2)c(C(F)F)n1` [drawing 17] gave an Efficacy in % with Botrytis cinerea of 100%. `Cn1cc(C(=O)Nc2ccc(F)cc2-c2ccc(Cl)c(F)c2)c(C(F)F)n1` [drawing 19] had an Efficacy in % in the data set with Pyrenophora teres of 100%. In the data set on Botrytis cinerea, `Cn1cc(C(=O)Nc2ccc(F)cc2-c2ccc(F)c(Cl)c2)c(C(F)F)n1` displayed an Efficacy in % of 87%.

With `Cn1cc(C(=O)Nc2cc(F)ccc2-c2ccc(F)c(Cl)c2)c(C(F)F)n1` [drawing 20, reference compound], the Efficacy in % in data set [2] was 33%.

As to `Cn1cc(C(=O)Nc2cc(F)ccc2-c2ccc(F)c(Cl)c2)c(C(F)F)n1` [drawing 15, reference compound], the Efficacy in % with Botrytis cinerea is recorded as 52%. Take `Cn1cc(C(=O)Nc2cc(F)ccc2-c2ccc(F)c(Cl)c2)c(C(F)F)n1` [drawing 18, reference compound]: the Efficacy in % in the data set on Pyrenophora teres is given as 93%. `Cc1ccc(-c2cc(F)ccc2NC(=O)c2cn(C)nc2C(F)(F)F)cc1F` [N-(5,3′-difluoro-4′-methylbiphenyl-2-yl)-1-methyl-3-trifluoromethyl-1H-pyrazole-4-carboxamide] registered a chromatographic logP in data set [1] of 3.27.

Compound `Cc1ccc(-c2cc(F)ccc2NC(=O)c2cn(C)nc2C(F)F)cc1F` [N-(5,3′-difluoro-4′-methylbiphenyl-2-yl)-3-difluoromethyl-1-methyl-1H-pyrazole-4-carboxamide] yielded a chromatographic logP in data set [1] of 3.05. In turn, `Cc1ccc(-c2cc(F)ccc2N)cc1F` [Example (III-2), 5,3′-difluoro-4′-methylbiphenyl-2-ylamine] displayed a chromatographic logP in data set [1] of 2.94. This chromatographic logP and that of the compound before are within 0.2 log units of each other. On the same count and under the same terms, as for `Cn1cc(C(=O)Nc2ccc(F)cc2-c2ccc(Cl)c(F)c2)c(C(F)(F)F)n1` [N-(4′-chloro-5,3′-difluorobiphenyl-2-yl)-1-methyl-3-trifluoromethyl-1H-pyrazole-4-carboxamide], the figure is 3.26.
